Our source for the Activity values is ChEMBL document CHEMBL3044573, “Neurological activities of lapachol and its furano derivatives from Kigelia africana” (Med Chem Res, 2013).

Activity calls are given as the source filed them. The calls are words filed in the database; no cut-off is given here.

The test system of data set [1] is Mus musculus. In words: Stimulation of central nervous system in albino Mus musculus (mouse) assessed as increase in number of lines crossed at 100 mg/kg, ip administered 30 min prior to testing by open-feild test relative to control. Format: ADME, organism-based. More on the design: dose 100 mg/kg, route intraperitoneal. The settings on record: in vivo, 0.5 h.

Data set [2] relates to Mus musculus. In words: Stimulation of central nervous system in albino Mus musculus (mouse) assessed as increase in rearing behaviour at 100 mg/kg, ip administered 30 min prior to testing by open-feild test relative to control. Also on record: dose 100 mg/kg, route intraperitoneal. It counts as ADME, organism-based. The settings on record: in vivo, 0.5 h.
The subject of data set [3] is Mus musculus. In words: Antidepressant activity in albino Mus musculus (mouse) assessed as reduction in immobility time at 50 mg/kg, ip administered 30 min prior to testing by forced-swim test relative to control. It counts as functional, organism-based. More on the design: dose 50 mg/kg.
Data set [4] concerns Mus musculus. In words: Anxiolytic activity in albino Mus musculus (mouse) assessed as decrease in rearing behaviour at 50 mg/kg, ip administered 30 min prior to testing by open-field test relative to control. More on the design: dose 50 mg/kg. Format: functional, organism-based.
In data set [5] the test system is Mus musculus. In words: Anxiolytic activity in albino Mus musculus (mouse) assessed as increase in number of open arm enteries at 100 mg/kg, ip administered 30 min prior to testing by elevated-plus maze test relative to control. It counts as functional, organism-based. Also on record: dose 100 mg/kg.
The subject of data set [6] is Mus musculus. In words: Anxiolytic activity in albino Mus musculus (mouse) assessed as increase in time spent on open arm at 100 mg/kg, ip administered 30 min prior to testing by elevated-plus maze test relative to control. It counts as functional, organism-based. Also on record: dose 100 mg/kg.
Data set [7] relates to Mus musculus. The data set is described as follows: Anxiolytic activity in albino Mus musculus (mouse) assessed as increase in time spent on open arm at 50 mg/kg, ip administered 30 min prior to testing by elevated-plus maze test relative to control. Also on record: dose 50 mg/kg. It counts as functional, organism-based.
Data set [8] has as its system Mus musculus. The data set is described as follows: Anxiolytic activity in albino Mus musculus (mouse) assessed as increase in number of open arm enteries at 50 mg/kg, ip administered 30 min prior to testing by elevated-plus maze test relative to control. It counts as functional, organism-based. More on the design: dose 50 mg/kg.
Data set [9] has as its system Mus musculus. In words: Antidepressant activity in albino Mus musculus (mouse) assessed as reduction in immobility time at 15 mg/kg, ip administered 30 min prior to testing by forced-swim test relative to control. Format: functional, organism-based. More on the design: dose 15 mg/kg.
Data set [10] concerns Mus musculus. In words: Antidepressant activity in albino Mus musculus (mouse) assessed as reduction in immobility time at 100 mg/kg, ip administered 30 min prior to testing by forced-swim test relative to control. It counts as functional, organism-based. Also on record: dose 100 mg/kg.
Data set [11] has as its system Mus musculus. In words: Stimulation of central nervous system in albino Mus musculus (mouse) assessed as increase in number of lines crossed at 50 mg/kg, ip administered 30 min prior to testing by open-feild test relative to control. As to conditions: in vivo, 0.5 h. Also on record: dose 50 mg/kg, route intraperitoneal. It counts as ADME, organism-based.
In data set [12] the test system is Mus musculus. In words: Stimulation of central nervous system in albino Mus musculus (mouse) assessed as increase in rearing behaviour at 50 mg/kg, ip administered 30 min prior to testing by open-feild test relative to control. Format: ADME, organism-based. Also on record: dose 50 mg/kg, route intraperitoneal. As to conditions: in vivo, 0.5 h.
Data set [13] relates to Mus musculus. In words: Anxiolytic activity in albino Mus musculus (mouse) assessed as decrease in rearing behaviour at 100 mg/kg, ip administered 30 min prior to testing by open-field test relative to control. It counts as functional, organism-based. Also on record: dose 100 mg/kg.

For `CC(O)c1cc2c(o1)C(=O)c1ccccc1C2=O` (stereo unspecified), the Activity result in the data set on Mus musculus [1] and in the data set on Mus musculus [2] was “Toxic” in each case. Moreover, the result in the data set with Mus musculus [3], in the data set with Mus musculus [4], with Mus musculus [5] and in the data set on Mus musculus [6] was Active.

With `CC1(C)C=CC2=C(O1)C(=O)c1ccccc1C2=O`, the outcome in the data set with Mus musculus [7], in the data set with Mus musculus [8], in the data set on Mus musculus [5] and in the data set on Mus musculus [6] was inactive.

As to `CN(C)CCCN1c2ccccc2CCc2ccccc21`, in the data set with Mus musculus [9], the result was Active.

On to `CC[C@H](CC[C@@H](C)[C@H]1CC[C@H]2[C@@H]3CC=C4C[C@@H](O)CC[C@]4(C)[C@H]3CC[C@]12C)C(C)C` [BETA-SITOSTEROL], for which the result with Mus musculus [10], with Mus musculus [7], in the data set on Mus musculus [3] and in the data set on Mus musculus [6] was inactive. The Activity result in the data set on Mus musculus [11] and with Mus musculus [12] was “Toxic” throughout. Moreover, the result with Mus musculus [8] and in the data set on Mus musculus [5] was Active.

Regarding `CC(C)=CCC1=C(O)C(=O)c2ccccc2C1=O` [LAPACHOL], the Activity entry with Mus musculus [1] and in the data set with Mus musculus [2] was “Toxic” each time. Further, the result in the data set on Mus musculus [7] and with Mus musculus [6] was inactive. The outcome in the data set on Mus musculus [3], in the data set on Mus musculus [8] and in the data set on Mus musculus [5] was Active.

Regarding `CC(=O)c1cc2c(o1)C(=O)c1ccccc1C2=O` [NAPABUCASIN], the result in the data set on Mus musculus [10], in the data set with Mus musculus [13], with Mus musculus [3] and in the data set on Mus musculus [4] was Active. The Activity entry with Mus musculus [11] is given as “Toxic”.
